Data from patent publication EP0313094A2, “Anticancer agent and reagent for obtaining revertants” (MEIJI SEIKA KAISHA LTD., priority 1987, dated 1989).
“Also recorded” adds a separate entry of the source.

Experiments:
Type in all cases: cell-based
normal NIH3T3 cells [1] = experiment: Growth inhibition of normal NIH3T3 cells (cell counting); conditions: 500 µg/mℓ SF-1346; same culture conditions
Protocol: (§1) NIH3T3 cells transformed by an activated melanoma c-H-ras oncogene and normal NIH3T3 cells were incubated at 37°C each in a Dulbecco-modified Eagle's medium containing 5% (v/v) of bovine serum.
(§2) Each medium was adjusted to have an initial cell density of 1 × 10⁴ cell/mℓ and contain SF-1346 at a concentration of 200 µg/mℓ or 500 µg/mℓ. The cells therein were counted with the lapse of time from the first day to the fifth day and from the fourth day to the seventh day of the incubation.
(§3) SF-1346 were added to the culture medium of NIH3T3 cells transformed with activated c-Ki-ras, N-ras, ret, hst and raf oncogenes in the same manner as in Example 1 so as to give a final concentration of 500 µg/mℓ.

[2] = tested on: NIH3T3 cells transformed by an activated melanoma c-H-ras oncogene; experiment: Growth inhibition of transformed NIH3T3 cells (cell counting); conditions: 500 µg/mℓ SF-1346, 37°C, Dulbecco-modified Eagle's medium, 5% bovine serum, initial 1 × 10⁴ cell/mℓ
Protocol: as §1, §2

[3] = tested on: PSN-1 cells derived from human pancreatic cancer; experiment: Inhibition of the growth of PSN-1 cells and acquirement of revertants
Protocol: PSN-1 cells were incubated at 37°C in RPMI 1640 media each containing 10% (v/v) fetal calf serum and SF-1346 at a concentration of 500 µg/mℓ or 200 µg/mℓ. An initial cell density was adjusted to 1 × 10⁴ cells/mℓ. The cells were counted with the lapse of time from the fourth day to the eighth day after the initiation of the incubation.

transformed NIH3T3 cells = experiment: Acquirement of revertants from transformed NIH3T3 cells (morphology, inverted microscope); conditions: 500 µg/mℓ; sixth day of incubation; inverted microscope 100 × magnification
Protocol: (§4) Cell incubation was carried out under the same conditions as those described in Example 1 except that SF-1346 was added to the culture medium so as to give a final concentration of 500 µg/mℓ. […] Namely, these surviving revertants formed flat foci.
Then, the revertants were isolated by selecting cell clusters forming flat foci by […]. After repeating this procedure several times, the desired revertants were isolated.

[4] = tested on: NIH3T3 cells transformed with activated c-Ki-ras, N-ras, ret, hst and raf oncogenes; experiment: Growth inhibition of NIH3T3 cells transformed with other oncogenes; conditions: final concentration 500 µg/mℓ
Protocol: as §3

[5] = tested on: SRY1 cells which had been obtained by cancerizing rat fibroblast 3Y1 cells through transfection with an src oncogene; experiment: Growth inhibition of SRY1 cells; conditions: src-transfected rat fibroblast 3Y1 cells; Example 2
normal NIH3T3 cells [6] = experiment: Morphology of normal NIH3T3 cells incubated with the compound; conditions: 500 µg/mℓ; sixth day of incubation
Protocol: as §4

## N[C@@H](Cc1ccc(O)cn1)C(=O)O [SF-1346, L-β-(5-hydroxy-2-pyridyl)alanine]
Normal NIH3T3 cells [1]
  growth of the normal NIH3T3 cells: did not inhibit; also recorded: does not inhibit the growth
[2]
  growth of the transformed NIH3T3 cells: inhibit the growth; also recorded: selectively inhibits the growth
[3]; 200 µg/mℓ, PSN-1 cells
  cells converted into flat revertants: 85%
  cells killed: 15%
  growth of the cancer cells: completely inhibiting the growth
[3]; 500 µg/mℓ, RPMI 1640, 10% fetal calf serum, counted fourth to eighth day
  killing of PSN-1 cells: completely killed
Transformed NIH3T3 cells
  morphological observation of transformed cells (revertant formation): the transformed cells partially died and the selectively surviving cells were morphologically similar to the normal NIH3T3 cells
[4]
  growth of the transformed NIH3T3 cells: inhibited the growth
[5]
  growth of SRY1 cells: completely inhibited the growth
Normal NIH3T3 cells [6]
  morphological change of normal cells: no morphological change was observed
